Literature values, collected in PMC7473964, “Application of Pharmacokinetic-Pharmacodynamic Modeling to Inform Translation of In Vitro NaV1.7 Inhibition to In Vivo Pharmacological Response in Non-human Primate” (Pharmaceutical Research, 2020).

Tested on: sense of smell (hyposmia) as biomarker of on-target NaV1.7 pharmacology
Parameters: method as in PMID 31172446
Conditions: healthy volunteers, first-in-human study

O=C(NS(=O)(=O)N1CCC1)c1cc(C2CC2)c(OCC23CC4CC(CC(C4)C2)C3)cc1F [GDC-0276]
Hyposmia in clinical study: a couple of incidents of hyposmia were reported
